The values below come from patent US9278982B2, “Targeting human thymidylate kinase induces DNA repair toxicity in malignant tumor cells” (NATIONAL YANG-MING UNIVERSITY, priority 2010, dated 2016).

One test has as its system panel of cell lines. Briefly: Doxorubicin sensitization, MTS viability assay, summary over the panel of cell lines. The class given is cell-based, human. As to the method:
FIG. 16. In vitro and in vivo effect of YMU1 on doxorubicin sensitization. (A) A panel of cell lines were pre-treated with vehicle, YMU1 (compound 21), D6 (ethyl 4-(2-chloroacetyl)piperazine-1-carboxylate) or D7 (compound 28) for 3 days and were exposed to different concentration of doxorubicin for 4 h. […] The enhancement (fold) of doxorubicin sensitivity in each cell line was calculated. Data represent mean±s.d., n=3; each experiment was quadruplex. Inset indicates the IC50 value of doxorubicin in various cell lines. […] Following overnight culture, cells were refreshed with growth medium. After 14 days of culture, colonies were fixed, stained by crystal violet and counted. (C) HCT-116 p53^−/− cells were subcutaneously implanted in the right flank of Balb/c nude mice (each experimental group n=8). Arrow indicated the time of stopping drug treatment. The tumor volume was estimated as described in Methods of the Invention section. (D) After 2 weeks recovered from treatment, mice were sacrificed for tumor weight measurement. Data represent mean±s.e.m; **, P<0.01 by a two-tailed Student's t-test. (E) Ki 67 proliferation marker staining of tumor shown in left panel. Scale bar, 50 μm. (F) Model of doxorubicin sensitization by YMU1 in malignant cancer cells. Both R2/R1 and TMPK are recruited to the site of doxorubicin-induced double-strand breaks, where dATP, dGTP, dCTP, dTTP and dUTP are site-specific synthesized. Inhibition of TMPK decreases dTTP formation at DNA damage sites, causing futile DNA repair due to dUTP incorporation.
Next, various human cancer cell lines were treated with YMU1, D6 or D7 for 72 h to test the potential of TMPK inhibitor in doxorubicin sensitization. After exposure to different concentration of doxorubicin for 4 h, cells were refreshed for viability analysis after 2 days and the IC50 value for doxorubicin in each of the cell lines was determined (FIG. 16A and Table 2).
The ability of YMU1 to sensitize non-tumorigenic mammary cycling H184B5F5/M10, MCF10A, primary human mammary epithelial (HMEC) and primary renal epithelial (HREC) cells and IMR-90 embryonic lung fibroblasts to doxorubicin was much weaker.
Cells plated into a 96-well plate (10^3 cells/well) were treated and cell viability was measured by MTS assay (Promega) (Cory et al., 1991). An annexin V-fluorescein isothiocyanate (FITC) apoptosis kit (Calbiochem) was used to detect apoptosis. The cell cycle analysis was performed by staining cells with propidium iodide (PI) for fluorescence-activated cell sorter (FACS) analysis with CellQuest software.
For orientation: Tetrazolium dyes change colour on reduction, which living cells bring about.

A further test deals with T1, TMPK (Homo sapiens, UniProt P23919).
T1 sequence (P23919 1-212): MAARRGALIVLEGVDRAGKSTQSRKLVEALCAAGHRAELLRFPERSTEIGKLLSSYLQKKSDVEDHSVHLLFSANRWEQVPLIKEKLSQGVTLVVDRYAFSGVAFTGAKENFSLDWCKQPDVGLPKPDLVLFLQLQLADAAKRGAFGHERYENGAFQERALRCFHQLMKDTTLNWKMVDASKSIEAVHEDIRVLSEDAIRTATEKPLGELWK
In words: Luciferase-coupled TMPK assay. Conditions: purified hTMPK protein (0.5 μg), 10 min preincubation; read-out: IC50 against hTMPK. Type of test: biochemical. Details: GST (N, cleaved yes); made in house; host or cells: E. coli JM109 (pGEX-2T-hTMPK). As to the method: FIG. 12. Identification of a novel hTMPK inhibitor. (A) A screen of TMPK inhibitor by luciferase-coupled assay. (B) The chemical structures of YMU1 (compound 21) and related molecules. (C) Effect of YMU1 and derivative compounds on hTMPK inhibition using purified hTMPK protein (0.5 μg) with 10 min preincubation prior to reaction using luciferase-coupled TMPK analysis. (D) Effect of YMU1 on activity of purified TMPK (0.5 μg) and GST-hTK1 protein (5 μg) with 10 min preincubation prior to reaction. Data represent mean±s.d. (n=4) (E) Molecular models of the TMPK-YMU1 complex. Left panel: TMPK/ATP/Mg+2; right panel: TMPK/YMU1. The TMPK is represented in surface electrostatic potential (upper) and structural ribbon (lower). ATP and YMU1 are shown in green and blue stick, respectively, with colored atom (O, red; S, yellow; P, orange). TMP is shown in white backbone and Mg+2 in purple. Arrow indicates the position of Asp15.
Based on the functional requirement of TMPK in DNA repair specifically in tumor cells with elevated level of R2 expression, we searched for inhibitors of hTMPK that might be useful in selectively sensitizing tumor cells to doxorubicin. […] The synthetic procedure and structural elucidation of YMU1 (compound 21) are described in the Methods of the Invention section of the application.
The TMPK reaction was started by adding purified hTMPK in 50 μl of TMPK assay buffer (100 mM Tris-HCl, pH 7.5, 100 mM KCl, 10 mM MgCl2, 50 μM ATP and 100 μM dTMP) in 96 wells plate at 25° C. for 10 min and terminated by adding 200 μl of DTNB (100 μM), followed by transferring 10 μl of reaction solution to a white 96-wellplate containing 90 μl of luciferase assay buffer (50 mM Glycine, 0.5 mM EDTA and 5 mM EDTA, pH 7.0, 0.1 μg of luciferase, 50 μM luciferin and 0.1% BSA). The luminescence was measured with a luminescence counter (Packard).

For `CCOC(=O)N1CCN(C(=O)Cn2sc3nc(C)cc(C)c3c2=O)CC1` [compound 21, Ethyl 4-(2-(4,6-dimethyl-3-oxoisothiazolo[5,4-b]pyridin-2(3H)-yl)acetyl) piperazine-1-carboxylate], the “ability to sensitize to doxorubicin” value in the test with panel of cell lines (non-tumorigenic H184B5F5/M10, MCF10A, HMEC, HREC cells and IMR-90 fibroblasts) is given as “much weaker”. Further, in the test on panel of cell lines (two BRCA 1/2 deficient tumor cells defective in homologous recombination repair), the doxorubicin sensitization result is listed as “not responsive”. For the same compound, the IC50 (commonly the concentration needed to halve the response being measured) on TMPK came out at 0.61 ± 0.02 µM.
